Reference: patent publication US12280045B2, “Antitumor agent and antitumor effect potentiator” (TAIHO PHARMACEUTICAL CO., LTD., priority 2017, dated 2025)

Legend:
[1] = tested on: mouse colon cancer cell line MC38; assay: Antitumor effect (tumor volume) in MC38 colon cancer cell transplant model; type: in vivo; conditions: for TV, DAY 22 MEAN ± S.E.: N=10
Description: MC38, a mouse colon cancer cell line, was provided by Dr. Yoshihiro Hayakawa (University of Toyama, Toyama, Japan). MC38 was cultured in RPMI 1640 medium containing 10% fetal bovine serum (FBS). MC38 was subcultured in a 37° C., 5% CO2 incubator in a 1:3 to 1:5 ratio, one to two times a week.
(§1) A cell suspension as a suspension of MC38 cells in a 1:1 mixture of phosphate-buffered saline (PBS) and extracellular matrix component Matrigel was prepared, and the suspension, containing 1×10^6 cells/0.1 mL, was transplanted subcutaneously into a C57BL/6NCrl mouse (Charles River Laboratories Japan Inc.), six weeks of age, in an area around the right last rib.
(§2) The tumor size was measured by measuring the major axis and minor axis of the tumor with a digimatic caliper, and TV was calculated using the following formula. TV (mm^3)=major axis (mm)×minor axis (mm)×minor axis (mm)/2
The animals were divided into groups of 10 using a stratified random grouping method, using TV as an index. The day the grouping was made (N=10) was designated as Day 1.
(§3) A methanesulfonic acid salt of compound 1 was pulverized with an agate mortar, and was prepared into a solution having a concentration of 5 mg/mL as its free form, using a solvent. The compound was then dissolved by sonication to prepare a 50 mg/kg dosing solution. The dosing solution was diluted with solvent to prepare a 25 mg/kg dosing solution, and a 12.5 mg/kg dosing solution. These dosing solutions were orally administered as compound 1, once daily in a dose of 12.5 mg/kg/day, 25 mg/kg/day, or 50 mg/kg/day, continuously for 21 days.
(§4) The anti-mouse PD-1 antibody was intraperitoneally administered in a dose of 0.05 mg/body on the first day (Day 1) of administration and on the 8th day since administration was started.
(§5) The medicinal agents shown in Table 1 were administered in the schedules, doses, and dosage forms shown in Table 1 (administered group No. 1 to No. 8).
A Dunnett's test (significance level 0.05) was conducted to analyze Day 22 TV for each group.

[2] = Percentage of body weight change in MC38 colon cancer cell transplant model; type: in vivo, mouse
Description: (§6) An electronic balance designed for animals was used for body weight measurement. A percentage of body weight change (BWCn) on day n was calculated from the body weight on day 1 (BW1) and the body weight (BWn) on day n using the following formula. Percentage of body weight change BWCn (%)=(BWn−BW1)/BW1×100
as §3, §4, §5

[3] = tested on: tumor-associated macrophage; assay: Fraction of tumor-associated macrophage in TIL, MC38 colon cancer cell transplant model (flow cytometry); type: in vivo, mouse
Description: MC38, a mouse colon cancer cell line, was provided by Dr. Yoshihiro Hayakawa (University of Toyama, Toyama, Japan). MC38 was cultured in RPMI 1640 medium containing 10% FBS. MC38 was subcultured in a 37° C., 5% CO2 incubator in a 1:3 to 1:5 ratio, one to two times a week.
A cell suspension of MC38 cells containing 2×10^6 cells/0.1 mL, was transplanted subcutaneously into a C57BL/6NJJcl mouse (CLEA Japan, Inc.), six weeks of age, in an area around the right last rib.
The tumor size was measured by measuring the major axis and minor axis of the tumor with a digimatic caliper, and TV was calculated using the following formula. TV (mm^3)=major axis (mm)×minor axis (mm)×minor axis (mm)/2 […]
The tumor was collected on the 10th day (Day 10) since administration was started, and a tumor suspension was prepared using a digestive enzyme treatment method. […] The isolated TILs were reacted with fluorescence-labeled anti-CD45 antibody, anti-CD90.2 (T cell marker) antibody, anti-CD11b (myeloid leukocyte marker) antibody, anti-Ly-6G (granulocytic bone marrow-derived suppressor cell marker) antibody, anti-Ly-6C (monocytic bone marrow-derived suppressor cell marker) antibody, and anti-F4/80 (macrophage marker) antibody, and the fraction of tumor-associated macrophage in TIL was calculated by fluorescence flow cytometry. […]

[4] = tested on: mouse breast cancer cell line EMT6; assay: Antitumor effect (tumor volume) in EMT6 breast cancer cell transplant model; type: in vivo
Description: EMT6, a mouse breast cancer cell line, was obtained from American Type Culture Collection (ATCC). EMT6 was cultured in Waymouth's MB752/1 medium containing […]. EMT6 was subcultured in a 37° C., 5% CO2 incubator in a 1:3 to 1:5 ratio, one to two times a week.
as §1, with “EMT6” for “MC38”, “PBS” for “phosphate-buffered saline (PBS)”, “1×10^4” for “1×10^6”, “BALB/c” for “C57BL/6NCrl”
as §2
The animals were divided into groups of 15 using a stratified random grouping method, using TV as an index. The day the grouping was made (N=15) was designated as Day 1.
A methanesulfonic acid salt of compound 1 was pulverized with an agate mortar, and was prepared into a solution having a concentration of 4.2 mg/mL as its free form, using a solvent. The compound was then dissolved by sonication to prepare a 42 mg/kg dosing solution. The dosing solution was orally administered as compound 1, once daily in a dose of 42 mg/kg/day, continuously for 14 days. […]

[5] = Percentage of body weight change in EMT6 breast cancer cell transplant model; type: in vivo, mouse; conditions: Compound 1 42 mg/kg p.o. q.d. Day 1-14 / PBS i.p.
Description: as §6
An electronic balance designed for animals was used for body weight measurement. A percentage of body weight change (BWCn) on day n was calculated in the same manner as in Example 1.
A methanesulfonic acid salt of compound 1 was pulverized with an agate mortar, and was prepared into a solution having a concentration of 4.2 mg/mL as its free form, using a solvent. The compound was then dissolved by sonication to prepare a 42 mg/kg dosing solution. The dosing solution was orally administered as compound 1, once daily in a dose of 42 mg/kg/day, continuously for 14 days.
The anti-mouse PD-1 antibody was intraperitoneally administered in a dose of 0.1 mg/body on the first day (Day 1) of administration, and on the 4th day (Day 4), the 8th day (Day 8), and the 11th day (Day 11) since administration was started.
The anti-mouse CTLA-4 antibody was intraperitoneally administered in a dose of 0.5 mg/body on the first day (Day 1) of administration, and after 4 days (Day 4), 8 days (Day 8), and 11 days (Day 11) from administration. […]

[6] = tested on: tumor-associated macrophage; assay: Fraction of tumor-associated macrophage in TIL, EMT6 breast cancer cell transplant model (flow cytometry); type: in vivo, mouse
Description: EMT6, a mouse breast cancer cell line, was obtained from ATCC. EMT6 was cultured in Waymouth's MB752/1 medium containing 15% FBS. EMT6 was subcultured in a 37° C., 5% CO2 incubator in a 1:3 to 1:5 ratio, one to two times a week.
as §1, with “EMT6” for “MC38”, “PBS” for “phosphate-buffered saline (PBS)”, “1×10^4” for “1×10^6”, “BALB/c” for “C57BL/6NCrl”
After 4 days from transplantation, the animals were divided into groups of 5 using a stratified random grouping method, using body weight as an index. The day the grouping was made (N=5) was designated as Day 1.
A methanesulfonic acid salt of compound 1 was pulverized with an agate mortar, and was prepared into a solution having a concentration of 4.2 mg/mL as its free form, using a solvent. […]
The tumor was collected on the 7th day (Day 7) since administration was started, and a tumor suspension was prepared using a digestive enzyme treatment method. […] The isolated TILs were reacted with fluorescence-labeled anti-CD45 antibody, anti-CD90.2 antibody, anti-CD11b antibody, anti-Ly-6G antibody, anti-Ly-6C antibody, and anti-F4/80 antibody, and the fraction of tumor-associated macrophage in TIL was calculated by fluorescence flow cytometry. […]

mouse MC38 tumor model = assay: Dose finding of compound 1 in mouse MC38 tumor model; type: in vivo; conditions: orally administered once daily for 21 days
Description: An experiment was conducted with mouse MC38 tumor model. Tumor cells were cultured in vitro and transplanted subcutaneously into male mice, six weeks of age, in the right chest region, followed by daily administration of compound 1 and a control antibody. […] This dose (oral continuous administration of 50 mg/kg for 21 days, q.d.) is equivalent to the recommended dose of compound 1 in humans when administered alone.

Question: What does the source list for `CNC(=O)c1cc2c(Oc3ccc(NC(=S)NC(=O)Cc4ccccc4)cc3F)ccnc2cc1OC` [Compound 1, 4-(2-fluoro-4-(3-(2-phenylacetyl)thioureido)phenoxy)-7-methoxy-N-methylquinoline-6-carboxamide]?
Answer: TV, DAY 22 MEAN ± S.E. ([1]; Compound 1 12.5 mg/kg p.o. q.d. Day 1-21 / PBS i.p. Day 1, 8): 1007 ± 161 mm^3; TV, DAY 22 MEAN ± S.E. ([1]; Compound 1 25 mg/kg p.o. q.d. Day 1-21 / PBS i.p. Day 1, 8): 763 ± 50 mm^3; TV, DAY 22 MEAN ± S.E. ([1]; Compound 1 50 mg/kg p.o. q.d. Day 1-21 / PBS i.p. Day 1, 8): 437 ± 62 mm^3; Day 22 TV versus control group (No. 1), result in words ([1]; Dunnett's test, significance level 0.05, doses as in Table 1): significantly smaller TVs than control group; BWC22 MEAN ± S.E. ([2]; Compound 1 12.5 mg/kg p.o. q.d. Day 1-21 / PBS i.p.): 6.1 ± 0.7%; BWC22 MEAN ± S.E. ([2]; Compound 1 25 mg/kg p.o. q.d. Day 1-21 / PBS i.p.): 5.0 ± 0.9%; BWC22 MEAN ± S.E. ([2]; Compound 1 50 mg/kg p.o. q.d. Day 1-21 / PBS i.p.): −0.3 ± 0.9%; Fraction of tumor-associated macrophage MEAN ± S.E. ([3]; Compound 1 25 mg/kg p.o. q.d. Day 1-9, tumor collected Day 10, N=5): 8.2 ± 2.3%; fraction of tumor-associated macrophage versus control group (No. 1), result in words ([3]; Dunnett's test, significance level 0.05, doses as in Table 2): significantly smaller fractions of tumor-associated macrophage than control group; TV, DAY 15 MEAN ± S.E. ([4]; Compound 1 42 mg/kg p.o. q.d. Day 1-14 / PBS i.p. Day 1, 4, 8, 11, N=15): 312 ± 29 mm^3; Day 15 TV versus control group (No. 1), result in words ([4]; Dunnett's test, significance level 0.05, doses as in Table 3): significantly smaller TVs than control group; BWC15 MEAN ± S.E. [5]: 3.2 ± 1.0%; Fraction of tumor-associated macrophage MEAN ± S.E. ([6]; Compound 1 42 mg/kg p.o. q.d. Day 1-6, tumor collected Day 7, N=5): 20.3 ± 4.8%; fraction of tumor-associated macrophage versus control group (No. 1), result in words ([6]; Dunnett's test, significance level 0.05, doses as in Table 4): significantly smaller fraction of tumor-associated macrophage than control group; preferred minimum dose that produces the maximum efficacy in the mouse (mouse MC38 tumor model): 50 mg/kg
